This assay relates to MX-1 breast xenograft, nude mice, tumor weight T/C. Description: NCI In Vivo Anticancer Drug Screen. Data for tumor model Human Mammary Carcinoma MX-1 Xenograft (intrarenal inoculation) in NU/NU Swiss (nude) mice. The following applies: endpoint: mean tumor weight change, higher = larger tumour. The essentials:
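Activity is given as a ratio, with each measurement in the compound-treated arm divided by the matching measurement in vehicle-dosed controls. Tumour size or survival serves as the measured parameter.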
For orientation: In xenograft studies the graft and the host belong to different species.

Setting [1] is: dose: 150.0 mg/kg/injection, schedule: Q04DX003 (sc), vehicle: Klucel (hydroxypropylcellulose) (HPC).
Setting [2] is: dose: 300.0 mg/kg/injection, schedule: Q04DX003 (sc), vehicle: Klucel (hydroxypropylcellulose) (HPC).
[3] abbreviates: dose: 600.0 mg/kg/injection, schedule: Q04DX003 (sc), vehicle: Klucel (hydroxypropylcellulose) (HPC).
The mark [4] stands for this setting: dose: 1200.0 mg/kg/injection, schedule: Q04DX003 (sc), vehicle: Klucel (hydroxypropylcellulose) (HPC).
Setting [5] is: dose: 300.0 mg/kg/injection, schedule: Q04DX003 (sc), vehicle: saline with Tween-80.
The mark [6] stands for this setting: dose: 8.0 mg/kg/injection, schedule: Q01DX010 (sc), vehicle: saline.
The mark [7] stands for this setting: dose: 16.0 mg/kg/injection, schedule: Q01DX010 (sc), vehicle: saline.
Setting [8] is: dose: 32.0 mg/kg/injection, schedule: Q01DX010 (sc), vehicle: saline.
[9] abbreviates: dose: 25.0 mg/kg/injection, schedule: Q01DX010 (sc), vehicle: saline.
The mark [10] stands for this setting: dose: 50.0 mg/kg/injection, schedule: Q01DX010 (sc), vehicle: saline.
The mark [11] stands for this setting: dose: 1200.0 mg/kg/injection, schedule: Q04DX003 (sc), vehicle: saline.
Where [12] appears, read: dose: 2400.0 mg/kg/injection, schedule: Q04DX003 (sc), vehicle: saline.

Values joined by “and” are separate entries in the source; they are usually repeats but may differ in a detail not shown here. Identical values can stand only once. Inconclusive results are not listed.

Consider `Cc1c(N)nc(C(CC(N)=O)NCC(N)C(N)=O)nc1C(=O)NC(C(=O)NC(C)C(O)C(C)C(=O)NC(C(=O)NCCc1nc(-c2nc(C(=O)NCCCNCCCc3ccccn3)cs2)cs1)C(C)O)C(OC1OC(CO)C(O)C(O)C1OC1OC(CO)C(O)C(OC(N)=O)C1O)c1cnc[nH]1` (stereo unspecified), for which the T/C by setting is: (dose: 9.0 mg/kg/injection, schedule: Q04DX003 (sc), vehicle: water) 77 % of control; (dose: 18.0 mg/kg/injection, schedule: Q04DX003 (sc), vehicle: water) 66 % of control; (dose: 36.0 mg/kg/injection, schedule: Q04DX003 (sc), vehicle: water) 75 % of control; (dose: 72.0 mg/kg/injection, schedule: Q04DX003 (sc), vehicle: water) 44 % of control.
As to `Cc1ccc(NCCN(C)C)c2c(=O)c3cc(O)ccc3sc12`, the T/C runs as follows: under setting [1], 54 % of control; under setting [2], 62 % of control; under setting [3], 120 % of control; under setting [4], 75 % of control.
Consider `CN(C=O)C(C(=O)Nc1cccc2c(OC(=O)C(N(C)C=O)(N(C)C=O)N(C)C=O)c(N=Nc3ccc(S(=O)(=O)Nc4nccs4)cc3)cc(N=Nc3ccc(S(=O)(=O)Nc4nccs4)cc3)c12)(N(C)C=O)N(C)C=O` (tested in a mixture with another compound), for which the T/C runs as follows: under setting [5], 108 % of control; (dose: 2400.0 mg/kg/injection, schedule: Q04DX003 (sc), vehicle: saline with Tween-80) 90 % of control.
With `O=CN(SSN(C=O)C1CCCCC1)C1CCCCC1`, the T/C is 69 % of control (dose: 50.0 mg/kg/injection, schedule: Q01DX010 (sc), vehicle: saline with Tween-80); 83 % of control (dose: 100.0 mg/kg/injection, schedule: Q01DX010 (sc), vehicle: saline with Tween-80); 53 % of control (dose: 200.0 mg/kg/injection, schedule: Q01DX010 (sc), vehicle: saline with Tween-80); 34 % of control (dose: 400.0 mg/kg/injection, schedule: Q01DX010 (sc), vehicle: saline with Tween-80).
With `CCCCNCCCNCCCNC(=O)c1csc(-c2csc(CCNC(=O)C(NC(=O)C(C)C(O)C(C)NC(=O)C(NC(=O)c3nc(C(CC(N)=O)NCC(N)C(N)=O)nc(N)c3C)C(OC3OC(CO)C(O)C(O)C3OC3OC(CO)C(O)C(OC(N)=O)C3O)c3cnc[nH]3)C(C)O)n2)n1` (stereo unspecified), the T/C is 104 % of control under setting [6], 73 % of control under setting [7] and 39 % of control under setting [8].
On to `CC1=C(/C=C/C(C)=C/C=C/C(C)=C/CO)C(C)(C)CCC1`, for which the T/C by setting is: (dose: 200.0 mg/kg/injection, schedule: Q04DX003 (sc), vehicle: saline with Tween-80) 89 % of control; (dose: 400.0 mg/kg/injection, schedule: Q04DX003 (sc), vehicle: saline with Tween-80) 112 % of control; (dose: 800.0 mg/kg/injection, schedule: Q04DX003 (sc), vehicle: saline with Tween-80) 84 % of control; (dose: 1600.0 mg/kg/injection, schedule: Q04DX003 (sc), vehicle: saline with Tween-80) 96 % of control.
For `COc1cc([C@@H]2c3cc4c(cc3[C@@H](OC3OC5CO[C@@H](c6cccs6)OC5C(O)C3O)[C@H]3COC(=O)[C@H]23)OCO4)cc(OC)c1O` (stereo partly specified), the T/C under setting [6] is 67 % of control; the T/C under setting [7] was 60 % of control; the T/C under setting [8] is 96 % of control; the T/C (dose: 64.0 mg/kg/injection, schedule: Q01DX010 (sc), vehicle: saline) was 44 % of control; the T/C (dose: 66.0 mg/kg/injection, schedule: Q01DX010 (sc), vehicle: saline) is 55 % of control; the T/C (dose: 132.0 mg/kg/injection, schedule: Q01DX010 (sc), vehicle: saline) was 34 % of control. Further, the T/C is 40 % of control (dose: 264.0 mg/kg/injection, schedule: Q01DX010 (sc), vehicle: saline) and 79 % of control (dose: 528.0 mg/kg/injection, schedule: Q01DX010 (sc), vehicle: saline).
For `Nc1ncc(C2OC(CO)C(O)C2O)c(=O)[nH]1` (stereo unspecified), the T/C is 53 % of control (dose: 150.0 mg/kg/injection, schedule: Q04DX003 (ip), vehicle: saline); 35 % of control (dose: 300.0 mg/kg/injection, schedule: Q04DX003 (ip), vehicle: saline); 25 % of control (dose: 600.0 mg/kg/injection, schedule: Q04DX003 (ip), vehicle: saline).
Take `C1OC1C1CO1` (stereo unspecified): the T/C is 4 % of control and 28 % of control (dose: 12.5 mg/kg/injection, schedule: Q01DX010 (sc), vehicle: saline); 63 % of control and 74 % of control (dose: 12.5 mg/kg/injection, schedule: Q04DX003 (sc), vehicle: suspension in saline); -53 % of control and -47 % of control under setting [9]; 37 % of control and 44 % of control (dose: 25.0 mg/kg/injection, schedule: Q04DX003 (sc), vehicle: suspension in saline); -90 % of control and -85 % of control under setting [10]; 1 % of control and 4 % of control (dose: 50.0 mg/kg/injection, schedule: Q04DX003 (sc), vehicle: suspension in saline).
As to `CN(C1=NS(=O)(=O)N=C(N(C)c2ccccc2)O1)c1ccccc1`, the T/C under setting [2] is 102 % of control; the T/C under setting [3] was 110 % of control; the T/C under setting [4] was 113 % of control; the T/C (dose: 2400.0 mg/kg/injection, schedule: Q04DX003 (sc), vehicle: Klucel (hydroxypropylcellulose) (HPC)) was 106 % of control.
As for `O=C(O)/C=C/C(=O)Nc1ccc(Cl)c(Cl)c1`, the T/C (dose: 50.0 mg/kg/injection, schedule: Q04DX003 (sc), vehicle: Klucel (hydroxypropylcellulose) (HPC)) is 111 % of control; the T/C (dose: 100.0 mg/kg/injection, schedule: Q04DX003 (sc), vehicle: Klucel (hydroxypropylcellulose) (HPC)) is 91 % of control; the T/C (dose: 400.0 mg/kg/injection, schedule: Q04DX003 (sc), vehicle: Klucel (hydroxypropylcellulose) (HPC)) was 120 % of control.
Take `COc1cc(C(=O)c2cocc2C(=O)c2ccc3c(c2)OCO3)cc(OC)c1OC`: the T/C under setting [1] is 74 % of control, the T/C under setting [2] was 52 % of control, the T/C under setting [3] is 56 % of control and the T/C under setting [4] was 44 % of control.
As for `c1ccc(CN2CCOC2)cc1`, the T/C is 60 % of control under setting [9]; 78 % of control under setting [10]; 70 % of control (dose: 100.0 mg/kg/injection, schedule: Q01DX010 (sc), vehicle: saline); 47 % of control (dose: 200.0 mg/kg/injection, schedule: Q01DX010 (sc), vehicle: saline).
`S=c1nc[nH]c2nc[nH]c12`: the T/C is 118 % of control (dose: 5.25 mg/kg/injection, schedule: Q01DX010 (sc), vehicle: Klucel (hydroxypropylcellulose) (HPC)); 72 % of control and 79 % of control (dose: 12.5 mg/kg/injection, schedule: Q01DX010 (sc), vehicle: Klucel (hydroxypropylcellulose) (HPC)).
For the compound `Clc1ccc(C(c2ccccc2Cl)C(Cl)Cl)cc1` (stereo unspecified), the T/C by setting is: under setting [11], 85 % of control; under setting [12], 98 % of control; (dose: 4800.0 mg/kg/injection, schedule: Q04DX003 (sc), vehicle: saline) 83 % of control; (dose: 9600.0 mg/kg/injection, schedule: Q04DX003 (sc), vehicle: saline) 39 % of control.
As for `CC[C@@]1(O)C[C@H](OC2CC(N(C)C)C(OC3CC(O)C(OC4CCC(=O)C(C)O4)C(C)O3)C(C)O2)c2c(cc3c(c2O)C(=O)c2c(O)ccc(O)c2C3=O)[C@H]1C(=O)OC` (stereo partly specified), the T/C was 88 % of control (dose: 3.0 mg/kg/injection, schedule: Q04DX003 (sc), vehicle: water) and 43 % of control (dose: 6.0 mg/kg/injection, schedule: Q04DX003 (sc), vehicle: water).
Regarding `O=C(O)C1CC1.[Ag]`, the T/C (dose: 75.0 mg/kg/injection, schedule: Q04DX003 (sc), vehicle: saline with Tween-80) is 120 % of control; the T/C (dose: 150.0 mg/kg/injection, schedule: Q04DX003 (sc), vehicle: saline with Tween-80) is 80 % of control; the T/C under setting [5] was 98 % of control.
In the case of `CC(=O)Oc1c[nH]c(=O)[nH]c1=O`, the T/C is 117 % of control (dose: 100.0 mg/kg/injection, schedule: Q04DX003 (sc), vehicle: distilled water + Tween-80); 97 % of control (dose: 400.0 mg/kg/injection, schedule: Q04DX003 (sc), vehicle: distilled water + Tween-80); 95 % of control (dose: 800.0 mg/kg/injection, schedule: Q04DX003 (sc), vehicle: distilled water + Tween-80); 58 % of control (dose: 1600.0 mg/kg/injection, schedule: Q04DX003 (sc), vehicle: distilled water + Tween-80).
Take `NC(Cn1ccc(=O)c(O)c1)C(=O)O` (stereo unspecified): the T/C runs as follows: (dose: 300.0 mg/kg/injection, schedule: Q04DX003 (sc), vehicle: saline) 72 % of control; under setting [11], 88 % of control; under setting [12], 88 % of control.

These data come from PubChem BioAssay AID296 (DTP/NCI, 2004).
